The source of these data is patent US11384065B2, “Heterocyclic compound as CSF-1R inhibitor and use thereof” (MEDSHINE DISCOVERY INC., priority 2018, dated 2022).

Data set [1] concerns the target CSF-1R (Homo sapiens (Human), UniProt P07333). The experiment in a line: In vitro inhibitory activity on CSF-1R kinase (33P-ATP filter-binding, Reaction Biology Corporation). It is filed as biochemical. The following applies: CSF-1R 2.5 nM, filter-binding method. As to the method: Experimental Example 1: In Vitro Inhibitory Activity of the Compounds of the Present Invention on CSF-1R in Terms of Enzymology The compounds of the present invention for experiments were made in house, and their structural formulas were shown in the preparation examples of each compound. The experimental tests were conducted at Reaction Biology Corporation in the United States, and the experimental results were provided by the company. Experimental Reagents: Necessary reaction buffer: 20 mM hydroxyethylpiperazine ethanesulfonic acid (pH 7.5), 10 mM magnesium chloride, 1 mM EGTA, 0.02% Brij35, 0.02 mg/mL bovine serum albumin, 0.1 mM Na3VO4, 2 mM DTT, 1% DMSO. The necessary cofactors were added separately to the CSF-1R kinase reaction. Enzyme: the concentration of CSF-1R was 2.5 nM Treatment with the Compounds: The compound to be tested was formulated with 100% DMSO into a solution with a specific concentration, and serial dilution was performed with DMSO through the intelligent pipetting assistant Integra Viaflo Assist. Experimental Procedure: […] All necessary cofactors were added to the above reaction buffer; CSF-1R kinase was added to the above matrix solution and shaken gently; Using acoustic technology (Echo550; nanoliter range), a solution of the compound in DMSO was added to the above kinase reaction mixture, and the reaction solution was incubated at room temperature for 20 minutes; ^33P-ATP (specific activity, 10 μCi/μl) was added to the above kinase reaction mixture to initiate the reaction; The reaction solution was incubated at room temperature for 2 hours; The kinase activity was detected by the filter-binding method; The kinase activity was the ratio of the remaining kinase in the test sample to the vehicle (DMSO) group. IC50 values and profiles were obtained using Prism (GraphPad software).

A short description of data set [2]: Pharmacokinetic study after intravenous injection and oral administration (plasma, LC-MS/MS). It is filed as in vivo, rats. The following applies: for AUC(0-t) / C0 / Vd / clearance / half-life / Cmax: male, SD, rat, plasma. From the text:
Example 2 Pharmacokinetic Study on Mice and Rats (PK)
The purpose of this experiment was to study the pharmacokinetics of the test article in the plasma of male C57BL/6J mice and SD rats after intravenous injection and oral administration.
The animals were randomly divided into two groups with 2 males in each group. The compounds were formulated into prescribed preparations. Preparations for intravenous injection were clear solutions, and oral preparations could be clear or homogeneous suspensions.
Whole blood samples were collected from the jugular vein puncture or saphenous vein of the animals 5 minutes, 15 minutes, 30 minutes, 1 hour, 2 hours, 4 hours, 6 hours, and 8 hours after administration. The whole blood sample was added to the centrifuge tube containing anticoagulant, and centrifuged at 3000 g for 15 minutes at 4° C. The supernatant of plasma was taken, frozen quickly on dry ice, and then stored in a −70° C.±10° C. refrigerator until LC-MS/MS analysis.
WinNonlin™ Version 6.3.0 (Pharsight, Mountain View, Calif.) pharmacokinetic software was used to process the plasma drug concentration data of the compounds with a non-compartmental model. The peak concentration (Cmax), peak time (Tmax) and quantifiable end time were obtained directly from the blood drug concentration-time profile.
The following pharmacokinetic parameters were calculated using the log-linear trapezoid method: Plasma clearance rate (CL), volume of distribution (Vd), elimination phase half-life (T1/2), average residence time of drug in the body from 0 to the end time point (MRT0-last), average residence time of the drug in the body from 0 to infinite time (MRT0-inf), area under the time-plasma concentration curve from 0 to the end time point (AUC0-last), area under the time-plasma concentration curve from 0 to infinite time (AUC0-inf) and bioavailability (F), C0 was the initial concentration.

CSF-1R, sequence (P07333 20-972): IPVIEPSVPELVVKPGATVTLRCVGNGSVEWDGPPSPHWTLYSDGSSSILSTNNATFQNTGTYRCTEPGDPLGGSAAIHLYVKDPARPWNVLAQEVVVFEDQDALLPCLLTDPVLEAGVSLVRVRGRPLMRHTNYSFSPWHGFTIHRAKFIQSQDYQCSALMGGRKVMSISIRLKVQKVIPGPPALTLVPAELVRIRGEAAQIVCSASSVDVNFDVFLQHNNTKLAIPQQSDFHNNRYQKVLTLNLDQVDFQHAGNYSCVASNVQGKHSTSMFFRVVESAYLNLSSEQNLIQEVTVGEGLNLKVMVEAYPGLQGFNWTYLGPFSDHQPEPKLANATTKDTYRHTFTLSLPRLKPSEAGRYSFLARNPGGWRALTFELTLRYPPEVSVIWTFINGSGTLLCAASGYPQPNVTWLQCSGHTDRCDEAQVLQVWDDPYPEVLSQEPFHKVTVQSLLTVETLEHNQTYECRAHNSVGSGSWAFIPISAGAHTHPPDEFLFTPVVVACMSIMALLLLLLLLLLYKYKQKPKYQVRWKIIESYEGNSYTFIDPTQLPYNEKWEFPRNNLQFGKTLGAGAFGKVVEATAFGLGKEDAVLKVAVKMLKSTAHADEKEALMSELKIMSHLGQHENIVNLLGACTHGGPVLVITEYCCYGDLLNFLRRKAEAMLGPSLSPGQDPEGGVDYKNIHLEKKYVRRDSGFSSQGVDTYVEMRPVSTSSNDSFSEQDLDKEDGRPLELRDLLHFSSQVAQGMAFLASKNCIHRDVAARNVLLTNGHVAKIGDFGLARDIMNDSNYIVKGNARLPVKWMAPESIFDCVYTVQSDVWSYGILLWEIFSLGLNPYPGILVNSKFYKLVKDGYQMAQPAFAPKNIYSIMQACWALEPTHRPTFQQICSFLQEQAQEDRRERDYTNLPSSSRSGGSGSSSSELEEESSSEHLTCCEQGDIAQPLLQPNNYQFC

Regarding `Cc1cc(NCc2ccc(C(F)(F)F)nc2)ncc1-c1ccc(N(C)C)c2c1CNC2=O` [Compound 1], in data set [1], the IC50 was determined as 3.06 nM.

For the compound `Cc1cc(NCc2ccc(C(F)(F)F)nc2)ncc1-c1ccc(N)c2c1CNC2=O` [Compound 2], the IC50 in data set [1] amounted to 1.55 nM.

Compound `CC(=O)Nc1ccc(-c2cnc(NCc3ccc(C(F)(F)F)nc3)cc2C)c2c1C(=O)NC2` [Compound 3] had an IC50 in data set [1] of 24.5 nM.

With `CNc1ccc(-c2cnc(NCc3ccc(C(F)(F)F)nc3)cc2C)c2c1C(=O)NC2` [Compound 4], the concentration for half-maximal inhibition (IC50) in data set [1] worked out at 1.27 nM.

`CNc1ccc(-c2cnc(Nc3ccc(OC4CC4)nc3)cc2C)c2c1C(=O)NC2` [Compound 5]: the concentration for half-maximal inhibition (IC50) in data set [1] was found to be 1.68 nM.

For the compound `CNc1ccc(-c2cnc(Nc3ccc(C4(C#N)CC4)nc3)cc2C)c2c1C(=O)NC2` [Compound 6], the half-inhibitory concentration (IC50) in data set [1] is 5.01 nM.

For the compound `CCOc1ccc(Nc2cc(C)c(-c3ccc(NC)c4c3CNC4=O)cn2)cn1` [Compound 7], the IC50 in data set [1] came to 1.87 nM.

On to `CNc1ccc(-c2cnc(Nc3ccc(OC(F)F)nc3)cc2C)c2c1C(=O)NC2` [Compound 8], for which the IC50 in data set [1] amounted to 4.98 nM.

Regarding `CNc1ccc(-c2cnc(Nc3ccc(N(C)C)nc3)cc2C)c2c1C(=O)NC2` [Compound 9], the IC50 in data set [1] came to 1.41 nM.

Compound `CNc1ccc(-c2cnc(Nc3cnc(C4CC4)nc3)cc2C)c2c1C(=O)NC2` [Compound 10] returned an IC50 in data set [1] of 2.61 nM. Moreover, in data set [2] (PO (10 mpk)), the F is listed as 106%. In data set [2] (1 mg/kg, IV (1 mpk)), this compound had an AUC(0-t) of 18.7 µM·h, a C0 of 6.29 µM, a Vd of 0.495 L/kg and a clearance of 2.31 mL/min/kg. Further, the half-life in data set [2] (1 mg/kg, IV (1 mpk)) was 2.53 h. Also, in data set [2] (10 mg/kg, PO (10 mpk)), the AUC(0-t) came to 198 µM·h and the highest level (Cmax) was 33 µM.

Take `CNc1ccc(-c2cnc(Nc3ccc(C4CC4)nn3)cc2C)c2c1C(=O)NC2` [Compound 11]: in data set [1], the IC50 is 4.71 nM.

In turn, `CNc1ccc(-c2cnc(Nc3cnc(C4CC4)cn3)cc2C)c2c1C(=O)NC2` [Compound 12] yielded a 50% inhibitory concentration (IC50) in data set [1] of 1.89 nM. This IC50 is about 2.5-fold lower than that of the compound before.

`CNc1ccc(-c2cnc(Nc3ncc(C4CC4)cn3)cc2C)c2c1C(=O)NC2` [Compound 13] registered an IC50 in data set [1] of 3.78 nM.

Compound `CNc1ccc(-c2cnc(Nc3ccc(C4CC4)cn3)cc2C)c2c1C(=O)NC2` [Compound 14] displayed an IC50 in data set [1] of 2.5 nM.

In data set [1], `CNc1ccc(-c2cnc(Nc3ccc(C4CC4)nc3)cc2C)c2c1C(=O)NC2` [Compound 15] displayed an IC50 of 0.82 nM.

`CNc1ccc(-c2cnc(Nc3cnc(OC4CC4)nc3)cc2C)c2c1C(=O)NC2` [Compound 16] yielded an IC50 in data set [1] of 2.49 nM.

In turn, `CNc1ccc(-c2cnc(Nc3ccc(OC4CC4)cn3)cc2C)c2c1C(=O)NC2` [Compound 17] had an IC50 in data set [1] of 4.15 nM.

Consider `CNc1ccc(-c2cnc(Nc3ccc(OC4CC4)nn3)cc2C)c2c1C(=O)NC2` [Compound 18], for which, in data set [1], the IC50 was found to be 3.43 nM.

`CNc1ccc(-c2cnc(Nc3cnc(OC4CC4)cn3)cc2C)c2c1C(=O)NC2` [Compound 19] showed a 50% inhibitory concentration (IC50) in data set [1] of 2.55 nM.

With `CNc1ccc(-c2cnc(Nc3ccn(C4CC4)c(=O)c3)cc2C)c2c1C(=O)NC2` [Compound 20], in data set [1], the IC50 came out at 12.1 nM.

`COc1ccc(-c2ccc(NC(=O)Nc3cccc(C)c3)cc2)c2c1C(=O)NC2` [Control compound, reference compound]: the F in data set [2] (PO (10 mpk)) is recorded as 3.92%. In data set [2] (1 mg/kg, IV (1 mpk)), this compound returned an AUC(0-t) of 0.918 µM·h, a C0 of 3.72 µM, a Vd of 1.48 L/kg and a clearance of 46.7 mL/min/kg. In data set [2] (1 mg/kg, IV (1 mpk)), this compound showed a half-life of 0.92 h. In data set [2] (10 mg/kg, PO (10 mpk)), this compound displayed an AUC(0-t) of 0.333 µM·h and a Cmax of 0.104 µM.
